Data published in patent US20150218534A1, “MODIFIED DNA POLYMERASE” (TOYOBO CO., LTD., priority 2012, published 2015).

Assays:
Type in all cases: biochemical
[1] = system: Psychrobacter DNA; experiment: PCR amplification using inosine-containing primers; details: primers 75 pmol or 150 pmol, 35 cycles (FIG. 11)
Procedure: Using inosine-containing primers, the difference in PCR amplification was compared. For comparison, KOD mutants and KOD (wild-type), each mixed with 1 μg of a KOD antibody per U of the enzyme, and Taq DNA polymerase mixed with an antibody (a mixture of equal amounts of Taq DNA polymerase (produced by Toyobo Co. Ltd.) and Anti-Taq High (produced by Toyobo Co. Ltd.)) were used.
For PCR with the KOD mutants and PCR with the KOD, a buffer, MgSO4, and dNTPs included in KOD-Plus-Ver. 2 (produced by Toyobo Co. Ltd.) were used. 50 μl of individual reaction solutions containing 1× PCR buffer, 1.5 mM MgSO4, dNTPs (dATP, dTTP, dCTP, dGTP) in an amount of 0.2 mM, primers (SEQ ID NOs: 40 and 41) in an amount of 75 pmol or 150 pmol, 100 ng of Psychrobacter DNA, and 1 U of each respective enzyme mixed with the antibody were used. PCR was performed using a GeneAmp PCR system 9700 (Applied Biosystems) on the following schedule: preliminary reaction at 94° C. for 2 minutes, followed by 35 cycles, each cycle consisting of 98° C. for 10 seconds, 54° C. for 10 seconds, and 68° C. for 1 minute.
For PCR with the Taq DNA polymerase, 50 μl of a reaction solution containing 1× buffer included in Blend Taq (product of Toyobo), dNTPs (dATP, […], dCTP, dGTP) in an amount of 0.2 mM, primers in an amount of 75 pmol or 150 pmol (the same as above), 100 ng of Psychrobacter DNA, and 2.5 U of the enzyme mixed with the antibody was used. PCR was performed using a GeneAmp PCR system 9700 (Applied Biosystems) on the following schedule: preliminary reaction at 94° C. for 2 minutes, followed by 35 cycles, each cycle consisting of 94° C. for 30 seconds, 54° C. for 30 seconds, and 68° C. for 1 minute.
After the completion of each individual reaction, each of the resulting reaction solutions was analyzed using a DNA-1000 kit for MultiNA (produced by Shimadzu Corporation) to confirm amplified DNA fragments.

[2] = system: 0.7 kbp of human β-globin amplified in PCR with dUTP; experiment: Degradation with UNG of DNA amplified in the presence of dUTP; details: for degradation with UNG of DNA amplified with the polymerase in the presence of dUTP: 37° C. for 10 minutes (FIG. 13)
Procedure: It was confirmed whether 0.7 kbp of human β-globin amplified using KOD mutant with reduced uracil sensitivity (N210D/Y7A/P36H) in PCR with dUTP was degraded by being reacted with UNG. For PCR, components included in KOD-Plus-Ver. 2 (produced by Toyobo Co. Ltd.) were used. 50 μl of a reaction solution containing 1× PCR buffer, 1.5 mM MgSO4, dNTPs (dATP, dUTP, dCTP, dGTP) in an amount of 2 mM in which dTTP was replaced by dUTP, primers (SEQ ID NOs: 50 and 51) in an amount of 15 pmol, 10 ng of human genomic DNA (produced by Roche), and 1 U of the enzyme mixed with an antibody was used. PCR was performed using a GeneAmp PCR system 9700 (Applied Biosystems) on the following schedule: preliminary reaction at 94° C. for 2 minutes, followed by 35 cycles, each cycle consisting of 98° C. for 10 seconds, 60° C. for 30 seconds, and 68° C. for 1 minute. The amplification products were diluted with the above-mentioned 1× PCR buffer to 10 ng/μl, 8 μl of the diluted amplification products was mixed with 2 μl of various concentrations of UNG (produced by Roche), and the mixtures were reacted at 37° C. for 10 minutes. After the completion of each individual reaction, each of the mixtures was analyzed using a DNA-1000 kit for MultiNA (produced by Shimadzu Corporation) to confirm the amount of amplification products.

[3] = system: 1.3 kbp, 2.8 kbp, and 3.6 kbp of human β-globin; experiment: Amplification of long-chain DNA in PCR using dUTP; parameters: key to Results of PCR in the presence of dUTP 1.3 kbp / Results of PCR in the presence of dUTP 2.8 kbp / Results of PCR in the presence of dUTP 3.6 kbp: A: Amplified; B: Amplified (faint band); C: Not amplified; details: dTTP replaced by dUTP, 35 cycles
Procedure, shortened: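 Enzymes (1 U, premixed with KOD antibody) amplified 1.3, 2.8 and 3.6 kbp β-globin from 10 ng human genomic DNA with 2 mM dNTPs having dUTP in place of dTTP, 1.5 mM MgSO4, 35 cycles (98° C. 10 s, 65° C. 30 s, 68° C. ~1 min/kbp). Taq control: 2.5 U, 94° C. denaturation. Yield judged by ethidium-stained agarose gel.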

Molecule	amplification with inosine-containing primers [1]	amount of UNG that completely degraded the amplified DNA ([2]; 80 ng of DNA, 37° C. for 10 minutes) [U]	degradation with UNG of DNA amplified with the polymerase in the presence of dUTP [2]	Results of PCR in the presence of dUTP 1.3 kbp [3]	Results of PCR in the presence of dUTP 2.8 kbp [3]	Results of PCR in the presence of dUTP 3.6 kbp [3]
KOD N210D/Y7A/P36H: KOD N210D (exo(−)) mutant with Y7A and P36H	stable amplification was confirmed	0.25	can be degraded by being reacted with UNG	A	A	A
KOD Y7A/V93K: modified KOD DNA polymerase with Y7A and V93K	stable amplification was confirmed		the DNA was degraded with UNG	A	A	B
KOD Y7A/P36H: modified KOD DNA polymerase with Y7A and P36H	stable amplification was confirmed		the DNA was degraded with UNG	A	A	B
KOD P36H/V93K: modified KOD DNA polymerase with P36H and V93K (protein, listed as Thermococcus kodakaraensis) MILDTDYITEDGKPVIRIFKKENGEFKIEYDRTFEHYFYALLKDDSAIEEVKKITAERHGTVVTVKRVEKVQKKFLGRPVEVWKLYFTHPQDKPAIRDKIREHPAVIDIYEYDIPFAKRYLIDKGLVPMEGDEELKMLAFDIETLYHEGEEFAEGPILMISYADEEGARVITWKNVDLPYVDVVSTEREMIKRFLRVVKEKDPDVLITYNGDNFDFAYLKKRCEKLGINFALGRDGSEPKIQRMGDRFAVEVKGRIHFDLYPVIRRTINLPTYTLEAVYEAVFGQPKEKVYAEEITTAWETGENLERVARYSMEDAKVTYELGKEFLPMEAQLSRLIGQSLWDVSRSSTGNLVEWFLLRKAYERNELAPNKPDEKELARRRQSYEGGYVKEPERGLWENIVYLDFRSLYPSIIITHNVSPDTLNREGCKEYDVAPQVGHRFCKDFPGFIPSLLGDLLEERQKIKKKMKATIDPIERKLLDYRQRAIKILANSYYGYYGYARARWYCKECAESVTAWGREYITMTIKEIEEKYGFKVIYSDTDGFFATIPGADAETVKKKAMEFLKYINAKLPGALELEYEGFYKRGFFVTKKKYAVIDEEGKITTRGLEIVRRDWSEIAKETQARVLEALLKDGDVEKAVRIVKEVTEKLSKYEVPPEKLVIHEQITRDLKDYKATGPHVAVAKRLAARGVKIRPGTVISYIVLKGSGRIGDRAIPFDEFDPTKHKYDAEYYIENQVLPAVERILRAFGYRKEDLRYQKTRQVGLSAWLKPKGT				A	A	C
